These results are taken from patent publication US20200393473A1, “EZETIMIBE METABOLITE AS A NON-INVASIVE BIOMARKER FOR NON-ALCOHOLIC STEATOHEPATITIS (NASH)” (ARIZONA BOARD OF REGENTS ON BEHALF OF THE UNIVERSITY OF …, priority 2018, published 2020).

Where only a bound is given, the exact number is not on record here.

For data set [1] the following is noted: normal healthy individuals, 10 mg oral dose of EZE; cited from earlier work.
Data set [2] in a line: Disposition of EZE and EZE-Gluc in plasma, bile and urine of control and MCD (NASH) rats, LC-MS/MS. Format: in vivo, rat. The following applies: NASH animal model (MCD rats) vs control, oral EZE. As to the method:
Ezetimibe was orally administered to control and MCD rats. Blood and bile were collected and EZE and ZE-Guc were measured by LC-MS/MS. […] The solid and open arrows indicate where NASH caused an increase and decrease, respectively, in the amount of compound in the biological fluid indicated.
Ezetimibe was intravenously administered to control and MCD rats. Blood and bile were collected and EZE and EZE-Guc were measured by LC-MS/MS. […] The solid arrows indicate where NASH caused an increase in the amount of compound in the biological fluid indicated.

Data set [3] is described as follows: EZE-Gluc in plasma and urine in NASH compared with healthy or steatotic livers. Format: in vivo. Conditions: NASH vs healthy or steatotic livers. As to the method: Furthermore, the inventive technical features of the present invention contributed to a surprising result. A surprising and unexpected result can occur when patients are administered EZE.

Take `O=C1[C@H](CC[C@H](O)c2ccc(F)cc2)[C@@H](c2ccc(O)cc2)N1c1ccc(F)cc1` [EZE, ezetimibe]: the “average peak blood concentration” value in data set [1] is 4.5 ng/mL.

For `O=C(O)[C@H]1O[C@@H](Oc2ccc([C@@H]3[C@@H](CC[C@H](O)c4ccc(F)cc4)C(=O)N3c3ccc(F)cc3)cc2)[C@H](O)[C@@H](O)[C@@H]1O` [EZE-Gluc, ezetimibe-glucuronide], in data set [2], the biliary elimination entry is given as “Decreased Biliary Elimination” and the plasma retention result is on record as “Increased Plasma Retention”. The “average peak blood concentration” value in data set [1] is recorded as 92 ng/mL. The “increase in plasma and urine” value in data set [3] is recorded as at most 100 fold.
